Tests used:
Pseudomonas aeruginosa = test: Effect on intestinal bacteria: number of Pseudomonas aeruginosa in feces; format: in vivo, ICR mice; conditions: mouse, in vivo, po, 500 mg/kg/day
Method: (§1) Effects of the present compound on intestinal bacteria
(§2) Each of the present compounds respectively produced in Examples 1 to 18 was orally administered continuously for 2 days at a daily dose rate of 500 mg/kg body weight to each of five female ICR mice of each group after 6 weeks of their birth.
(§3) Each of the two fecal specimens respectively collected from each mouse before and after one day of the administration was diluted with 100 times by weight of an anaerobic diluent (a phosphoric acid buffer solution) and was ground in a mortar, and 0.1 ml of the thus ground material was smeared on each of the following culture media for the following bacteria, and the thus inoculated culture media were incubated under the following conditions. Thereafter, the number of the following bacteria in each of the thus cultured media was determined.
NAC agar 37° C., one day, […]

Escherichia coli = test: Effect on intestinal bacteria: number of Escherichia coli in feces; format: in vivo, ICR mice; conditions: after oral administration for 2 days, 500 mg/kg/day, female ICR mice; before: 6.4
Method: (b) Effect on the intestinal bacterial colonies:
[…] Each portion of the two kinds of the feces was cultured at 25° C. or 37° C. in a variety of culture medium for one to five days to see the state of Escherichia coli, Pseudomonas aeruginosa, a Streptococcus species, a Lactobacillus species, Lactobacillus bifidus and a Bacteroides species in the culture medium.
as §1
as §3, with “specimens respectively collected from each mouse before and after one day of the administration was diluted with 100 times” left out

Lactobacillus bifidus = test: Effect on intestinal bacteria: number of Lactobacillus bifidus in feces; format: in vivo, ICR mice; conditions: mouse, in vivo, po, 500 mg/kg/day
Method: (§4) (b) Effect on the intestinal bacterial colonies: […]
as §1, §2, §3
BS agar 37° C., 5 days, […]

[1] = system: a species of Lactobacillus; test: Effect on intestinal bacteria: number of a sp. of Lactobacillus in feces; format: in vivo, ICR mice; conditions: mouse, in vivo, po, 500 mg/kg/day
Method: as §4, §1, §2, §3
a species of Lactobacillus
LBS agar 37° C., 5 days, […]

[2] = system: a species of Streptococcus; test: Effect on intestinal bacteria: number of a sp. of Streptococcus in feces; format: in vivo, ICR mice; conditions: mouse, in vivo, po, 500 mg/kg/day
Method: as §4, §1, §2, §3
a species of Streptococcus
TATAC agar 37° C., one day, […]

[3] = system: Staphylococcus aureus IAM 1011; test: Antibacterial activity in vitro (MIC) against Staphylococcus aureus; format: cell-based; conditions: IAM1011, Mueller-Hinton agar, 18 to 24 hours, 37° C., read-out: MIC (minimum growth inhibiting concentration) against Staphylococcus aureus
Method: (§5) (c) Anti-bacterial activity (in vitro):
(§6) Minimum concentration of the present compound inhibiting the growth of the following bacteria was determined according to the standard procedures of Japan Society of Chemotherapy:
Staphylococcus aureus IAM 1011
(§7) Determination of the antibacterial activity of the present compound produced in Examples 1 to 18, respectively was carried out according to the standard procedures of Japan Society of Chemotherapy for finding MIC (the minimum concentration of a specimen to inhibit the growth of a species of bacteria).
(§8) A series of diluted solutions of each of the present compound were mixed with 9 times by weight of Mueller-Hinton's culture medium as the culture medium for determining the sensitivity of a bacterial species, and flat agar culture plates were prepared by using the thus obtained mixture.
(§9) Each of the liquids respectively containing one of the bacterial species shown in Table 2 was smeared onto each of the thus prepared flat agar culture plates with a platinum loop, in length of about 2 cm, and the thus treated plates were incubated for 18 to 24 hours at 37° C. Thereafter, by observing the growth state of each bacterial species on the cultured plates, the minimum concentration of each compound completely inhibiting the growth of each bacterial species was found.

a species of Bacteroides = test: Effect on intestinal bacteria: number of a sp. of Bacteroides in feces; format: in vivo, ICR mice; conditions: mouse, in vivo, po, 500 mg/kg/day
Method: as §4, §1, §2, §3
a species of Bacteroides
NBGT agar 37° C., 5 days, […]

[4] = system: Escherichia coli IFO 12734; test: Antibacterial activity in vitro (MIC) against Escherichia coli; format: cell-based; conditions: IFO12734, Mueller-Hinton agar, 18 to 24 hours, 37° C., read-out: MIC (minimum growth inhibiting concentration) against Escherichia coli
Method: as §5, §6
Escherichia coli IFO 12734 and
as §7, §8, §9

| SMILES | Number of Pseudomonas aeruginosa after the administration (Pseudomonas aeruginosa) | Number of Escherichia coli after the administration (Escherichia coli) | Number of Lactobacillus bifidus after the administration (Lactobacillus bifidus) | Number of a sp. of Lactobacillus after the administration [1] | Number of a sp. of Streptococcus after the administration [2] | MIC [3] | Number of a sp. of Bacterioides after the administration (a species of Bacteroides) | MIC [4] |
| --- | --- | --- | --- | --- | --- | --- | --- | --- |
| COC(=O)Cc1ccc(NC(=O)C2=C(COC(C)=O)CSC3C(NC(=O)CSc4ccncc4)C(=O)N23)cc1 (stereo not shown) [Example 2, N-(4-carbomethoxymethylphenyl)-[7-(4-pyridylthioacetamido)caphalosporanic]amide] | < 3.0 Log10 (number of bacteria/g feces) | 6.5 Log10 (number of bacteria/g feces) | 8.6 Log10 (number of bacteria/g feces) | 9.0 Log10 (number of bacteria/g feces) | 6.6 Log10 (number of bacteria/g feces) | ≥ 50 µg/mL | 8.7 Log10 (number of bacteria/g feces) | ≥ 100 µg/mL |
| Cc1nnc(SCC2=C(C(=O)NCCc3ccc(O)cc3)N3C(=O)C(NC(=O)Cn4cnnn4)C3SC2)s1 (stereo not drawn) [Example 17, N-[beta-(4-hydroxyphenyl)ethyl]-{7-(1-1H-tetrazolylacetamido)-3-[2-(5-methyl-1,3,4-thiadiazolyl)thiomethyl]-3-cephem-4-carboxylic}amide] | < 3.0 Log10 (number of bacteria/g feces) | 6.4 Log10 (number of bacteria/g feces) | 8.4 Log10 (number of bacteria/g feces) | 9.0 Log10 (number of bacteria/g feces) | 6.9 Log10 (number of bacteria/g feces) | ≥ 0.78 µg/mL | 8.1 Log10 (number of bacteria/g feces) | ≥ 3.12 µg/mL |
| COC(=O)Cc1ccc(NC(=O)C2=C(COC(C)=O)CSC3C(NC(=O)CC#N)C(=O)N23)cc1 (stereo not shown) [Example 8, N-(4-carbomethoxymethylphenyl)-7-[(2-cyanoacetamido)cephalosporanic]amide] | < 3.0 Log10 (number of bacteria/g feces) | 6.6 Log10 (number of bacteria/g feces) | 8.4 Log10 (number of bacteria/g feces) | 9.1 Log10 (number of bacteria/g feces) | 6.6 Log10 (number of bacteria/g feces) | ≥ 100 µg/mL | 8.9 Log10 (number of bacteria/g feces) | ≥ 100 µg/mL |
| COC(=O)Cc1ccc(NC(=O)C2=C(CSc3nnc(C)s3)CSC3C(NC(=O)Cn4cnnn4)C(=O)N23)cc1 (stereo not shown) [Example 14, N-(4-carbomethoxymethylphenyl)-{7-(1-1H-tetrazolylacetamido)-3-[2-(5-methyl-1,3,4-thiadiazolyl)thiomethyl]-3-cephem-4-carboxylic}amide] | < 3.0 Log10 (number of bacteria/g feces) | 6.4 Log10 (number of bacteria/g feces) | 8.2 Log10 (number of bacteria/g feces) | 9.0 Log10 (number of bacteria/g feces) | 6.6 Log10 (number of bacteria/g feces) | ≥ 12.5 µg/mL | 8.4 Log10 (number of bacteria/g feces) | ≥ 100 µg/mL |
| Cc1nnc(SCC2=C(C(=O)Nc3ccc(C(N)=O)cn3)N3C(=O)C(NC(=O)Cn4cnnn4)C3SC2)s1 (stereo not shown) [Example 18, N-(6-nicotinic amide)-{7-(1-1h-tetrazolylacetamido)-3-[2-(5-methyl-1,3,4-thiadiazolyl)thiomethyl]-3-cepehem-4-carboxylic}amide] | < 3.0 Log10 (number of bacteria/g feces) | 6.4 Log10 (number of bacteria/g feces) | 8.4 Log10 (number of bacteria/g feces) | 9.0 Log10 (number of bacteria/g feces) | 6.9 Log10 (number of bacteria/g feces) | ≥ 12.5 µg/mL | 8.1 Log10 (number of bacteria/g feces) | ≥ 100 µg/mL |

From patent US4758558A, “N-(substituted)-[7-(2-cyanoacetamido)cephalosporanic]amide derivatives having antibiotic utility” (priority 1982, dated 1988)
